Like-named read-outs stand apart in the source and are kept apart here.
What was measured:
Assay in all cases: Thermal stability shift assay
Format in all cases: binding
DMPK1 = target: T1, DMPK1 (Homo sapiens, UniProt Q09013); conditions: read-out: Tm shift DMPK1
T1 construct: purchased in-house (SGC Oxford thermal shift panel)
T1 sequence (Q09013 1-629): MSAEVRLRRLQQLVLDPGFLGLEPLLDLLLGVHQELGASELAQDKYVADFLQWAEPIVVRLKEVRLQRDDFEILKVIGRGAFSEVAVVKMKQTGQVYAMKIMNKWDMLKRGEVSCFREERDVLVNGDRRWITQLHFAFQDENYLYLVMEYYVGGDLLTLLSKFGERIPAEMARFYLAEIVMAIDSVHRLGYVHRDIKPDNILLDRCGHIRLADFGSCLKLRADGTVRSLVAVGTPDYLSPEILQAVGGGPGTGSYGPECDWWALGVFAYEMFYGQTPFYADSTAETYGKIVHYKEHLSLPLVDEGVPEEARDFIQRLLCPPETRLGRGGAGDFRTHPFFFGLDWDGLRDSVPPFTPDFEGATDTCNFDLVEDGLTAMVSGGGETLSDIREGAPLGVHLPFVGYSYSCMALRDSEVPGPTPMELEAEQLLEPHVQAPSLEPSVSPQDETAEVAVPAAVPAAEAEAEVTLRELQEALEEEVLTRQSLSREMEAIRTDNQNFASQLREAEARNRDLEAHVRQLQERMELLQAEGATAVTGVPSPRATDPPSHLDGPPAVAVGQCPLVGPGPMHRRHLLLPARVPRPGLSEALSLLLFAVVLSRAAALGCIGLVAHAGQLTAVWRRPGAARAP
Procedure: (§1) Thermal denaturation experiments were carried out in an Mx3005p real-time PCR machine (Agilent) using a protein concentration of 2 μM and an inhibitor concentration of 10 μM. Samples were buffered in 10 mM HEPES (pH 7.5), 500 mM NaCl and a 1:1000 dilution of SyproOrange (Invitrogen). The assay and data evaluation were carried out as described ([Bullock et al., 2005])

DRAK1 = target: T2, DRAK1 (Homo sapiens, UniProt Q9UEE5); conditions: read-out: Tm shift DRAK1
T2 construct: purchased in-house (SGC Oxford thermal shift panel)
T2 sequence (Q9UEE5 1-414): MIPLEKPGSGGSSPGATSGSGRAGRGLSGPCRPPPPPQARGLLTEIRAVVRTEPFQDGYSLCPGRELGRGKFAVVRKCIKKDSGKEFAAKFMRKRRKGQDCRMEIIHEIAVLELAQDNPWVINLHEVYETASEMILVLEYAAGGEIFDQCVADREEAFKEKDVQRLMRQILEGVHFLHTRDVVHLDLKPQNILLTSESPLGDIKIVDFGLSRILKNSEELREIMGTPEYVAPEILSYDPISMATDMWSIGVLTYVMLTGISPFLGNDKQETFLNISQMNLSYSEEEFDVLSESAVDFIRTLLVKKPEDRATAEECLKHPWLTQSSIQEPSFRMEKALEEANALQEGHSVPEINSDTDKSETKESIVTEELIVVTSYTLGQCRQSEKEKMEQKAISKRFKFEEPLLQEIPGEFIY
Procedure: as §1

JNK2 = target: T3, JNK2 (Homo sapiens, UniProt P45984); conditions: read-out: Tm shift JNK2
T3 construct: purchased in-house (SGC Oxford thermal shift panel)
Procedure: as §1

LOK = target: T4, LOK (Homo sapiens, UniProt O94804); conditions: read-out: Tm shift LOK
T4 construct: purchased in-house (SGC Oxford thermal shift panel)
Procedure: as §1

LYN = target: T5, LYN (Homo sapiens, UniProt P07948); conditions: read-out: Tm shift LYN
T5 construct: purchased in-house (SGC Oxford thermal shift panel)
Procedure: as §1

MAP2K6 = target: T6, MAP2K6 (Homo sapiens, UniProt P52564); conditions: read-out: Tm shift MAP2K6
T6 construct: purchased in-house (SGC Oxford thermal shift panel)
T6 sequence (P52564 1-334): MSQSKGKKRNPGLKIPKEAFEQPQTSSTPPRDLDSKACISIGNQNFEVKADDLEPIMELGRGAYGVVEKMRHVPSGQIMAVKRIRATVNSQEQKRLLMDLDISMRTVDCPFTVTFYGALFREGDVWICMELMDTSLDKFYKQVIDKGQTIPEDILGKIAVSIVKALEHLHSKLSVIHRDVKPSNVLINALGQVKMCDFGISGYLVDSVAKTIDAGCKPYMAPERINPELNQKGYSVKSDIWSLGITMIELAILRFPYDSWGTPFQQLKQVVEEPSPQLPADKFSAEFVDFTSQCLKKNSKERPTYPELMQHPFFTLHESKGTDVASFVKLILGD
Procedure: as §1

RSK2~C = target: T7, RSK2~C (Homo sapiens, UniProt P51812); conditions: read-out: Tm shift RSK2~C
T7 construct: RSK2~C 2.7 12.3 2.0 1.0 1.3 -0.2 0.4
Procedure: as §1

eEF2K = target: T8, eEF2K (Homo sapiens, UniProt O00418); conditions: read-out: Tm shift eEF2K
T8 construct: purchased in-house (SGC Oxford thermal shift panel)
T8 sequence (O00418 1-725): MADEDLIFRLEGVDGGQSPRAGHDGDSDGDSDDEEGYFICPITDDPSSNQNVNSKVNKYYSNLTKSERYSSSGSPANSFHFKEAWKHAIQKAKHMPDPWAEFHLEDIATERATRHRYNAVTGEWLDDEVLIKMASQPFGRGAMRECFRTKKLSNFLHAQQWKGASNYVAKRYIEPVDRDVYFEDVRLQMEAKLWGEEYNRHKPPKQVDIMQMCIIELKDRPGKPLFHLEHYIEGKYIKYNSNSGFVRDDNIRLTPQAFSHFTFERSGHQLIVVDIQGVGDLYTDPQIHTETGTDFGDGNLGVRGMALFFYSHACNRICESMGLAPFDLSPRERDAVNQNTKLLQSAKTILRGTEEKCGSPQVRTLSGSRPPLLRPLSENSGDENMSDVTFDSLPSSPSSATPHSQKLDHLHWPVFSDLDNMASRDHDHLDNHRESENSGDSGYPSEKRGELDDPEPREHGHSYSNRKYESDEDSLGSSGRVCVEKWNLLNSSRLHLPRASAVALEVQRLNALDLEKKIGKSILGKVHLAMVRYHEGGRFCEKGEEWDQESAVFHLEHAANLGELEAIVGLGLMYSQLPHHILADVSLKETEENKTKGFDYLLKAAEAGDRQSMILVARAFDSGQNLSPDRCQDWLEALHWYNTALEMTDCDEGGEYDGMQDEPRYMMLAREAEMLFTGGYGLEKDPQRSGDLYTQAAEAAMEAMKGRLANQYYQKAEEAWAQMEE
Procedure: as §1

T4 sequence (O94804 whole entry): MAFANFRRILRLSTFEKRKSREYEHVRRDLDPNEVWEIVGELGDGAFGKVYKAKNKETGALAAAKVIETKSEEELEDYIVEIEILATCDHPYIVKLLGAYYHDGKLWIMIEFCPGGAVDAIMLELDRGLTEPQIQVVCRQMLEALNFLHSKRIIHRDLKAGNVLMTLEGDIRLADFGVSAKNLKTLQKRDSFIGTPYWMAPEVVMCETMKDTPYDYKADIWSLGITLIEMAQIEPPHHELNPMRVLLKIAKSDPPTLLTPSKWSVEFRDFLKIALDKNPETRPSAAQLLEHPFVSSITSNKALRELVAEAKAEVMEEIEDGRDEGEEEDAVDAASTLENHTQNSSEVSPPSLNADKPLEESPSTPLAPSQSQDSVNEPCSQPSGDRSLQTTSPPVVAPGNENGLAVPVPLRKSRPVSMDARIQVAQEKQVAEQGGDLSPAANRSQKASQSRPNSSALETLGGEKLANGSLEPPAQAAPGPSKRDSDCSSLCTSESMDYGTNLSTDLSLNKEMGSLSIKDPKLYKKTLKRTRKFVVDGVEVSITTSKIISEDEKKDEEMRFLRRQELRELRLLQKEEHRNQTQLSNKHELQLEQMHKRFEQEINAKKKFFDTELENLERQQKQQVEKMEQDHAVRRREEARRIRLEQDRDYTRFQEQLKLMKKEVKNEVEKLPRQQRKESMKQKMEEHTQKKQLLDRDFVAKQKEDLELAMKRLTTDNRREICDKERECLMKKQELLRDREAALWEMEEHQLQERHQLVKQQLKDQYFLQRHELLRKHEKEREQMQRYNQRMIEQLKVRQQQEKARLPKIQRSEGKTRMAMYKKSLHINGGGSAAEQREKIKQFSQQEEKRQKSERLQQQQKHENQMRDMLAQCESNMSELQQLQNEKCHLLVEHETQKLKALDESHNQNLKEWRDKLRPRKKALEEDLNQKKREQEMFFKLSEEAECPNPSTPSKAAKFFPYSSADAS
T5 sequence (P07948 whole entry): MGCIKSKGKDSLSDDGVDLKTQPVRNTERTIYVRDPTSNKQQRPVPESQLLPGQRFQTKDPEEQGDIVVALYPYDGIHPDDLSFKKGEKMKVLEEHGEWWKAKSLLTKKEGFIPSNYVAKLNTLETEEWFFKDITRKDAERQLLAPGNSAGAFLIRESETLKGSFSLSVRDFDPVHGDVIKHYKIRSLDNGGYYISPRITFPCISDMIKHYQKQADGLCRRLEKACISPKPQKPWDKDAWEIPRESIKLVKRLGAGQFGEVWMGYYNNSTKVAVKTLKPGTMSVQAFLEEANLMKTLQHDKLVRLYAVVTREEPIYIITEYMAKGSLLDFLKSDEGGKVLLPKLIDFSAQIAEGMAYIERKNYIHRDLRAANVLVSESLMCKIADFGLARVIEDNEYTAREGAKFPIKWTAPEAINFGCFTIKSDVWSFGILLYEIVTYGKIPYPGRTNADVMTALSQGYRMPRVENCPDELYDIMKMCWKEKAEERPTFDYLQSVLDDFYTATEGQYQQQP
T3 sequence (P45984 whole entry): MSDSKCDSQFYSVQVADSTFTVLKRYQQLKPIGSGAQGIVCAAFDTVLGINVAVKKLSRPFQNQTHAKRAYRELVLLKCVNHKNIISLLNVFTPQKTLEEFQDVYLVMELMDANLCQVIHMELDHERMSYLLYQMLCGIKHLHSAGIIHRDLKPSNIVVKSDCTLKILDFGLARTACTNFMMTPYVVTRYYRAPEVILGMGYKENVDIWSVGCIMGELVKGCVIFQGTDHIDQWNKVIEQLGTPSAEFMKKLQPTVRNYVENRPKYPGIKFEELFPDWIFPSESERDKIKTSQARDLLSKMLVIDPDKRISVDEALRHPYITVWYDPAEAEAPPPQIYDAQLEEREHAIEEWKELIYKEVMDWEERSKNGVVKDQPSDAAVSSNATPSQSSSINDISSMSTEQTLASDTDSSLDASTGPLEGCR
T7 sequence (P51812 422-679 limits assumed): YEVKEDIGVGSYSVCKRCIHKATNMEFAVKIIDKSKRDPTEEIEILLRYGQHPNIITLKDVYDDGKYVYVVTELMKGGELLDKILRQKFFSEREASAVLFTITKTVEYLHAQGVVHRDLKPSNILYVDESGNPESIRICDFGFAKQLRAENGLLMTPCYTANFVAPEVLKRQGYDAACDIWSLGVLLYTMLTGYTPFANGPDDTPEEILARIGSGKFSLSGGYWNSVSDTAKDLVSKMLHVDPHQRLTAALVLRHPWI

ΔTm at 10 µM (DMPK1; inhibitor 10 μM) [°C] | ΔTm at 10 µM (DRAK1; inhibitor 10 μM) [°C] | ΔTm at 10 µM (JNK2; inhibitor 10 μM) [°C] | ΔTm at 10 µM (LOK; inhibitor 10 μM) [°C] | ΔTm at 10 µM (LYN; inhibitor 10 μM) [°C] | ΔTm at 10 µM (MAP2K6; inhibitor 10 μM) [°C] | ΔTm at 10 µM (RSK2~C; inhibitor 10 μM) [°C] | ΔTm at 10 µM (eEF2K; inhibitor 10 μM) [°C] | SMILES | ΔTm at 10 µM (DMPK1) [°C] | ΔTm at 10 µM (DRAK1) [°C] | ΔTm at 10 µM (JNK2) [°C] | ΔTm at 10 µM (LOK) [°C] | ΔTm at 10 µM (LYN) [°C] | ΔTm at 10 µM (MAP2K6) [°C] | ΔTm at 10 µM (RSK2~C) [°C] | ΔTm at 10 µM (eEF2K) [°C]
-0.3 | -0.2 | -0.2 | -1.1 | 0 | 0.4 | -0.2 | -0.4 | CCOC(=O)c1c(C(C#N)=CN(C)C)c2ccc(Cl)c(Cl)c2n1C (mixture of isomers) [compound 2, (E/Z)-Ethyl 6,7-Dichloro-3-[1-Cyano-2-(Dimethylamino)Vinyl]-1-Methyl-1H-Indole-2-Carboxylate] | – | – | – | – | – | – | – | –
– | – | – | – | – | – | – | – | CCOC(=O)c1c(/C(C#N)=C\N)c2ccc(Cl)c(Cl)c2n1C [KH-CB19, (E)-Ethyl 3-(2-Amino-1-Cyanovinyl)-6,7-Dichloro-1-Methyl-1H-Indole-2-Carboxylate] | -0.4 | 2.5 | -0.2 | -0.8 | 0.2 | 0.5 | 2 | -0.1
– | – | – | – | – | – | – | – | CCOC(=O)c1c(C(C#N)=CN)c2ccc(Cl)c(Cl)c2n1C (mixture of isomers) [KH-CB20, (E/Z)-Ethyl 3-(2-Amino-1-Cyanovinyl)-6,7-Dichloro-1-Methyl-1H-Indole-2-Carboxylate] | -0.4 | 2.6 | 0.5 | 3 | 0 | 0.6 | 1 | -0.1
0.9 | 1.7 | -0.5 | -0.7 | 0.2 | 0.1 | 1.3 | 0.3 | Cn1c2c(Cl)c(Cl)ccc2c2c(C#N)c[nH]c(=O)c21 [compound 3, 7,8-Dichloro-9-Methyl-1-Oxo-2,9-Dihydro-1H-Pyrido[3,4-b]Indole-4-Carbonitrile] | – | – | – | – | – | – | – | –

SMILES | ΔTm at 10 µM (DMPK1; inhibitor 10 μM) [°C] | ΔTm at 10 µM (DRAK1; inhibitor 10 μM) [°C] | ΔTm at 10 µM (JNK2; inhibitor 10 μM) [°C] | ΔTm at 10 µM (LOK; inhibitor 10 μM) [°C] | ΔTm at 10 µM (LYN; inhibitor 10 μM) [°C] | ΔTm at 10 µM (MAP2K6; inhibitor 10 μM) [°C] | ΔTm at 10 µM (RSK2~C; inhibitor 10 μM) [°C] | ΔTm at 10 µM (eEF2K; inhibitor 10 μM) [°C] | ΔTm at 10 µM (DMPK1) [°C] | ΔTm at 10 µM (DRAK1) [°C] | ΔTm at 10 µM (JNK2) [°C] | ΔTm at 10 µM (LOK) [°C] | ΔTm at 10 µM (LYN) [°C] | ΔTm at 10 µM (MAP2K6) [°C] | ΔTm at 10 µM (RSK2~C) [°C] | ΔTm at 10 µM (eEF2K) [°C]
NC1=NC(=O)/C(=C2\CCNC(=O)c3[nH]c(Br)cc32)N1 [Hymenialdisine, hymenialdisine, reference compound] | 0.2 | 14.8 | -0.1 | 4.2 | 0.3 | 0.6 | 2.7 | -0.1 | – | – | – | – | – | – | – | –

From PMC3145970, “Specific CLK Inhibitors from a Novel Chemotype for Regulation of Alternative Splicing” (Chemistry & Biology, 2011)
